The source of these data is patent US9429568B2, “Silaanthracene as a red and near infrared sensor and a method to manufacture such a sensor” (Board of Trustees of Southern Illinois University on Behalf …, priority 2010, dated 2016).

The structures appear in SMILES notation.

Data set [1] in a line: Hypochlorous acid (HOCl) sensor: fluorescence and absorbance response to added HOCl. The format is physicochemical. The note with it: 0.5 μM compound; for peak emission intensity wavelength: all HOCl concentrations. The method, then:
A solution of compound 3 from Table 2 herein was formed at a concentration of 0.5 μM and at a pH of 7.4. HOCl was added to the solution at concentrations ranging up to 2 μM and the fluorescence of the resulting solutions was measured after exposure to an excitatory light pulse of 655 nm.
A solution of compound 29 from Table 5 herein was formed at a concentration of 0.5 μM and at a pH of 7.4. HOCl was added to the solution at concentrations ranging up to 5 μM and the fluorescence of the resulting solutions was measured after exposure to an excitatory light pulse of 580 nm.

The nature of data set [2]: Ratiometric sensor for hypochlorous acid and pH: UV-Vis and fluorescence in buffer series. It is filed as physicochemical. As to conditions: excited at 430 nm, all HOCl concentrations, phosphate or citrate/phosphate buffer, 0.5% DMF. How it is done: A solution of compound 29 from Table 4 herein was dissolved in a series of phosphate buffer or citrate/phosphate buffer solutions using 0.5% DMF for dissolution. The pH level of each sample solution was checked using a digital pH meter (Accumet, AB15) equipped with a glass electrode (Accumet, pH/ATC Calomel) to confirm the pH of each sample solution. After recording the pH of a sample solution, 20 mL of the sample solution was stirred in a 50 mL beaker to saturate the sample solution with oxygen. Small aliquots from a dilute HOCl solution were then added to the sample solution. After the addition of each HOCl aliquot, the sample solution was stirred for approximately 45 seconds and then the UV-Vis and fluorescence of the sample solution was measured using a quartz cuvette with fluorescence excitations at 570 nm and 430 nm. The concentration of the NaOCl solution was determined by using a standardized sodium thiosulfate solution.

In the case of `CN(C)c1ccc2c(c1)[Si](C)(C)c1cc(N(C)C)ccc1C21SCc2ccccc21` [Compound 3], the “peak emission intensity wavelength” value in data set [1] (pH 7.4, HOCl up to 2 μM, excitation 655 nm) was 663 nm.

Consider `C[Si]1(C)c2cc(O)ccc2C2(c3ccccc3C(=O)N2CCN2CCNCCNCCNCC2)c2ccc(O)cc21` [Compound 29], for which the “maximum absorbance wavelength λmax” value in data set [1] (pH 7.4, HOCl up to 5 μM) was 590 nm. The “shoulder peak emission wavelength” value in data set [1] (pH 7.4, HOCl up to 5 μM, excited at 430 nm) is on record as 570 nm. In addition, the “peak emission intensity wavelength” value in data set [1] (pH 7.4, HOCl up to 5 μM, excited at 570 nm) is recorded as 605 nm. Moreover, in data set [2], the “first emission intensity peak wavelength” value came to 570 nm and the “second more intense emission peak wavelength” value came to 600 nm.
